The test system of series [1] is Caco-2 cells. Put plainly: in vitro. The settings on record: Caco-2. As for the experimental part:
Caco-2 cells were cultured on 12-well Transwell polycarbonate membrane inserts with a 0.4 μm pore size (Corning Incorporated, Kennebunk, ME) at 37 °C and 5% CO2 for 21–24 days prior to the experiment as described in Hubatsch et al. The culture medium (DMEM, 10% FBS, 1% MEM nonessential amino acids, 100 U/mL penicillin–streptomycin) was changed every second day. Transepithelial electrical resistance (TEER) was measured before and after the permeability assay with a Millicell-ERS electrode (Millipore, Bedford, MA) attached to an epithelial volt ohm meter (EVOM, World Precision Instruments, Sarasota, FL). The permeability assay was performed according to a previously published protocol. […] Sulfasalazine is a substrate of BCRP and OATP2B1. , The DMSO concentration was 0.45–1.5%. Before the experiment, inserts were washed and preincubated in the transport buffer for 20 min shaking at 37 °C. Sulfasalazine and LY permeability was measured in the apical to basolateral direction at five time points (20, 40, 60, 90, and 120 min) and, additionally, in the basolateral to apical direction to calculate the efflux ratio. […] […] LY (250 μM) was added on the donor side of all inserts to measure the integrity of the cell monolayer. Before analysis, samples were centrifuged at 2755g for 30 min, and donor solution and mass balance samples were diluted 1:100. LY fluorescence was measured with a Varioskan LUX microplate reader (Thermo Fisher Scientific) at 430 nm excitation and 538 nm emission. Sulfasalazine was analyzed with ultra-performance liquid chromatography (UPLC) using a Syncronis C18 column (1.7 μm particle size, 50 × 2.1 mm + 0.2 μm Waters online filter) (Thermo Fisher Scientific) coupled with Waters Acquity UPLC interfaced with a PDA detector both controlled by the Waters Empower software version 3. The UPLC was operated in gradient mode at 354 nm. Solvents were 0.015 M phosphate buffer pH 2 (A), acetonitrile (B), 1:1 acetonitrile/methanol (strong needle wash), and 20% acetonitrile (weak needle wash). Column temperature was 30 °C, injection volume was 10 μL, retention time was 1.46 min, and flow rate was 0.5 mL/min. The gradient was 25% B → 70% B (0–3 min), 70% B → 25% B (3.00–3.01 min), and 25% B (3.01–4 min). The data were collected for the first 180 s of each UPLC run.
In the Caco-2 permeability assay, the apparent permeability (P app) of sulfasalazine was calculated using the following equation: Papp=(dQ/dt)(1/A×C0) where dQ/dt is the rate of permeation across the cells (nmol/min), A is the surface area of the filter (1.12 cm^2), and C 0 is the initial concentration in the donor chamber (μM). The efflux ratio of sulfasalazine was calculated by dividing the P app in the basolateral to the apical direction by the P app in the apical to basolateral direction. The TEER for each cell insert was calculated before and after the experiment by multiplying the mean resistance of three measurements by the surface area of the filter (1.12 cm^2). Mass balance was calculated by dividing the […]. All experiments were done in triplicate wells, and the IC50 and Caco-2 permeability assays were repeated three times.

The target of series [2] is T1, OATP2B1 (Homo sapiens, UniProt O94956).
T1 construct: expressed in transfected cells; host or cells: HEK293 cells (ATCC) transduced with recombinant OATP2B1 baculovirus
T1 sequence (O94956 1-709): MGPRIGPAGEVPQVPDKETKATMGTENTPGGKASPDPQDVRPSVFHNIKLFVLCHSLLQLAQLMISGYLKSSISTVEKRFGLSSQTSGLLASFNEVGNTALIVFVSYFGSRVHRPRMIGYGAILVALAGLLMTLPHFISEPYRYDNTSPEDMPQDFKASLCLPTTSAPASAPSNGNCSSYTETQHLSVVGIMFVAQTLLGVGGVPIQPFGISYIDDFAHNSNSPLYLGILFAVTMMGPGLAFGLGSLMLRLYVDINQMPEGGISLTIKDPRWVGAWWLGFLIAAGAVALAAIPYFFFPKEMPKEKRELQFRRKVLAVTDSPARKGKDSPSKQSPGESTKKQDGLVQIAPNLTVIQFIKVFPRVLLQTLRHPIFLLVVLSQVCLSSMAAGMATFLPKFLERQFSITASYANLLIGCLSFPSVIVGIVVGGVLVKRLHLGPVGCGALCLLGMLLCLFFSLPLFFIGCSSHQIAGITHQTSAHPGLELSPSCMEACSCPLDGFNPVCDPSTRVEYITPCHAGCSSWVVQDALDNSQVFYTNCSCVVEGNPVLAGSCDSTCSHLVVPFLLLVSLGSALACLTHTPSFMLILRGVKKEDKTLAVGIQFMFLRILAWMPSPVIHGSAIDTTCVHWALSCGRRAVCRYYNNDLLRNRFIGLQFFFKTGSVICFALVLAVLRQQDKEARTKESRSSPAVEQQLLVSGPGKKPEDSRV
As to conditions: previously characterized inhibitors, ref previous studies, cited from earlier work.

The test system of series [3] is Caco-2 cells. Details: method as in not given. The settings on record: ref not given; cited from earlier work.
On the set-up of series [4]: method as in not given. As to conditions: rats; ref not given; cited from earlier work.
Series [5] deals with T2, BCRP (Homo sapiens, UniProt Q9UNQ0).
T2 sequence (Q9UNQ0 1-655): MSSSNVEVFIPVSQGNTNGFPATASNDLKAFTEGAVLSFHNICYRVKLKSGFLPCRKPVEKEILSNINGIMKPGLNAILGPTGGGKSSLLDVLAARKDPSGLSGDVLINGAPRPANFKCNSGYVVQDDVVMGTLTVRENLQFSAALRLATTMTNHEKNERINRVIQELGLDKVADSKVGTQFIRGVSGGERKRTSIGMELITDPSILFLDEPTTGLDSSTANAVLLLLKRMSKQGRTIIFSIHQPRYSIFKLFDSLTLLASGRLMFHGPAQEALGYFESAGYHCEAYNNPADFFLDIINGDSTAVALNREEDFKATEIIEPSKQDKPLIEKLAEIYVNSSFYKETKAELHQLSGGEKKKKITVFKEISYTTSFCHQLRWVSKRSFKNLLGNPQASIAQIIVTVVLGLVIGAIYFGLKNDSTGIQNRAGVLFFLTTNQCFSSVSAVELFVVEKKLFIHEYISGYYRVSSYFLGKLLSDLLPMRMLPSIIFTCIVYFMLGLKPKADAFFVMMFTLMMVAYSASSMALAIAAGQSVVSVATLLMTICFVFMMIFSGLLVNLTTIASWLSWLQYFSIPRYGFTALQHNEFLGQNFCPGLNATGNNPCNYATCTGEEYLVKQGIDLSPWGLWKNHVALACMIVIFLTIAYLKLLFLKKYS
As to conditions: read-out: IC50 (95% CI), BCRP; previously characterized inhibitors; ref previous studies; cited from earlier work.

Where two headings read alike, the source gives them in different places.

Broadly, the IC50 is the point on the concentration scale where inhibition reaches its midpoint. For `COc1ccc(CCC(=O)c2c(O)cc(O[C@@H]3O[C@H](CO)[C@@H](O)[C@H](O)[C@H]3O[C@@H]3O[C@@H](C)[C@H](O)[C@@H](O)[C@H]3O)cc2O)cc1O` [neohesperidin DC], the “effect on sulfasalazine permeability (P app)” value in series [1] is on record as “None of the selected food additives showed any effect”. Moreover, the half-inhibitory concentration (IC50) was 15.5 µM in series [2] (pH 5.5, read-out: IC50, OATP2B1, pH 5.5); 48.6 µM in series [2] (pH 7.4, read-out: IC50, OATP2B1, pH 7.4); 0.86 µM in series [5]. Also, in series [2] (read-out: K i, OATP2B1), the Ki is 20.1 µM. Further, the “P app in Caco-2 cells” value in series [3] was < 6 × 10^–6 cm/s. In addition, in series [4], the oral bioavailability is ~20%.
